This passage reports IC50 results from US20190010167A1, “INHIBITORS OF THE MENIN-MLL INTERACTION” (Vitae Pharmaceuticals, Inc., priority 2015, published 2019).

Each structure is given as a SMILES string.

Usually IC50 stands for the concentration needed to halve the response being measured. Higher therefore signals weaker potency.

In this assay the target is T1, wild-type menin / MLL-AF9 fusion protein (Homo sapiens, UniProt O00255).
T1 construct: made in house; host or cells: E. coli (menin); HEK293 cleared lysate (MLL-AF9-FLAG)
T1 sequence (O00255 1-610): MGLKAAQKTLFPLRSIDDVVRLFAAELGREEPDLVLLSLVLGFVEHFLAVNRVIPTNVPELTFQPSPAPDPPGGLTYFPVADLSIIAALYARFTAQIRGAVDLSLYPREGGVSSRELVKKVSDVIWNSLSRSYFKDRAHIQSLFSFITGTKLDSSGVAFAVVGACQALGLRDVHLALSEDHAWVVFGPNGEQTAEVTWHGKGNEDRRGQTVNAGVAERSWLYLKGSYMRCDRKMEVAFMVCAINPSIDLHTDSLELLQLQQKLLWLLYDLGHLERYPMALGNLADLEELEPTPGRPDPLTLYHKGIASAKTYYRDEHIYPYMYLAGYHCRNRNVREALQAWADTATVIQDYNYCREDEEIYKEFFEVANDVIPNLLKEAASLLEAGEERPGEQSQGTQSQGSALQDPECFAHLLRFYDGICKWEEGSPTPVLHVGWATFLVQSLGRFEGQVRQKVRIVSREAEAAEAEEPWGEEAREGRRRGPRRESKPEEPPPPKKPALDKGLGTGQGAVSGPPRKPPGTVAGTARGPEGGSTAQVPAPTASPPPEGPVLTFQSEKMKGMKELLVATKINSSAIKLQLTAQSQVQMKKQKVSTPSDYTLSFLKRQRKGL
Briefly: AlphaLISA menin/MLL binding assay, wild-type menin (Assay 1). The note with it: biotinylated wild-type menin 5 nM, MLL-AF9-FLAG lysate. On the procedure: Potencies of inhibitor compounds against menin/MLL binding were assessed by AlphaLISA assay using biotinylated (1) wild-type menin or (2) mutated menin (described in Nature (2012) Vol. 482, pp. 542-548) and MLL-AF9 fusion protein bearing a FLAG epitope at its C-terminus. Menin proteins were expressed in E. coli and covalently modified with biotin using EZ-Link™ Sulfo-NHS-Biotin (ThermoFisher Cat. No. 21217) according to manufacturer's protocol. MLL1-1,396 fused to AF91-92 and the C-terminal FLAG peptide was expressed in HEK293 cells and used as a lysate cleared at 21,000×g for 10 min.
Compounds (2 μL of solutions in DMSO) were dispensed in white 96-well half-area plates (Corning Cat. No. 3693) and incubated for 30 min at RT with 5 nM biotinylated menin and appropriate amount of MLL-AF9-FLAG lysate in 40 μL of 50 mM Tris-HCl buffer pH 7.4 containing 5% (v/v) DMSO, 50 mM NaCl, 0.01% (w/v) bovine serum albumin (BSA) and 1 mM DTT. To this incubation mixture, 40 μl of AlphaLISA anti-FLAG acceptor (PerkinElmer Cat. No. AL112C) and streptavidin donor (PerkinElmer Cat. No. 6760002) beads (10 μg/mL each) was added and incubation continued at RT for 60 min. Alpha (amplified luminescent proximity homogeneous assay) signal was measured on an Envision multi-label plate reader at the end of the incubation. All steps were conducted under dim fluorescent light.
These percent inhibition values were regressed against compound concentrations in the assay using four parameter logit non-linear curve fitting (XLFit, IDBS). The IC50 values were derived from the curve fitting as inflection points on the dose-response curves and are set out in Table 1 below.
In general terms: In Alpha technology, singlet oxygen from a donor bead excites a nearby acceptor bead.
Turning to `CC(=O)N[C@H]1CC[C@@H](CN2CCC3(CCN(c4ncnc5sc(CC(F)(F)F)cc45)C3)C2)CC1` (stereo partly shown) [Example 50, N-((1s,4s)-4-((7-(6-(2,2,2-Trifluoroethyl)thieno[2,3-d]pyrimidin-4-yl)-2,7-diazaspiro[4.4]nonan-2-yl)methyl)cyclohexyl)acetamide], the IC50 lay within 100 to 1000 nM. With `COC(=O)N[C@H]1CC[C@@H](CN2CCC3(CCN(c4ncnc5sc(CC(F)(F)F)cc45)C3)C2)CC1` (stereo partly shown) [Example 51, Methyl ((1s,4s)-4-((7-(6-(2,2,2-trifluoroethyl)thieno[2,3-d]pyrimidin-4-yl)-2,7-diazaspiro[4.4]nonan-2-yl)methyl)cyclohexyl)carbamate], the IC50 is 100 to 1000 nM. For `COC(=O)Nc1cccc(CN2CCC3(CCN(c4ncnc5sc(CC(F)(F)F)cc45)C3)C2)c1` (stereo not shown) [Example 53, methyl (3-((7-(6-(2,2,2-trifluoroethyl)thieno[2,3-d]pyrimidin-4-yl)-2,7-diazaspiro[4.4]nonan-2-yl)methyl)phenyl)carbamate], the IC50 is less than 100 nM.

`O=C(C1CCCNC1)N1CCC2(CCN(c3ncnc4sc(CC(F)(F)F)cc34)C2)C1` (stereo not shown) [Example 55, piperidin-3-yl(7-(6-(2,2,2-trifluoroethyl)thieno[2,3-d]pyrimidin-4-yl)-2,7-diazaspiro[4.4]nonan-2-yl)methanone] returned an IC50 of 100 to 1000 nM. As for `O=C(C1CCCCN1)N1CCC2(CCN(c3ncnc4sc(CC(F)(F)F)cc34)C2)C1` (stereo not shown) [Example 56, piperidin-2-yl(7-(6-(2,2,2-trifluoroethyl)thieno[2,3-d]pyrimidin-4-yl)-2,7-diazaspiro[4.4]nonan-2-yl)methanone], the figure is 100 to 1000 nM; as for `O=C([C@@H]1CCCN1)N1CCC2(CCN(c3ncnc4sc(CC(F)(F)F)cc34)C2)C1` (stereo partly shown) [Example 57, 4-(7-prolyl-2,7-diazaspiro[4.4]nonan-2-yl)-6-(2,2,2-trifluoroethyl)thieno[2,3-d]pyrimidine], 100 to 1000 nM. For the molecule `O=C1N(Cc2ccccc2)CCC12CCN(c1ncnc3sc(CC(F)(F)F)cc13)C2` (stereo not shown) [Example 59, 2-benzyl-7-(6-(2,2,2-trifluoroethyl)thieno[2,3-d]pyrimidin-4-yl)-2,7-diazaspiro[4.4]nonan-1-one], the half-inhibitory concentration (IC50) is no less than 1000 nM. Take `CS(=O)(=O)c1ccc(CC(=O)N2CC3(C2)CN(c2ncnc4sc(CC(F)(F)F)cc24)C3)cc1` [Example 62, 2-(4-(methylsulfonyl)phenyl)-1-(6-(6-(2,2,2-trifluoroethyl)thieno[2,3-d]pyrimidin-4-yl)-2,6-diazaspiro[3.3]heptan-2-yl)ethan-1-one]: the half-inhibitory concentration (IC50) was 100 to 1000 nM. In the case of `CC1(C)CCC(CN2CC3(C2)CN(c2ncnc4sc(CC(F)(F)F)cc24)C3)CC1` [Example 64, 4-(6-((4,4-dimethylcyclohexyl)methyl)-2,6-diazaspiro[3.3]heptan-2-yl)-6-(2,2,2-trifluoroethyl)thieno[2,3-d]pyrimidine], the IC50 was in the range of 100 to 1000 nM. For `Cc1c(CN2CC3(C2)CN(c2ncnc4sc(CC(F)(F)F)cc24)C3)ccc2[nH]c(C#N)cc12` [Example 67, 4-methyl-5-((6-(6-(2,2,2-trifluoroethyl)thieno[2,3-d]pyrimidin-4-yl)-2,6-diazaspiro[3.3]heptan-2-yl)methyl)-1H-indole-2-carbonitrile] the value was 100 to 1000 nM. As for `FC(F)(F)Cc1cc2c(N3CC4(CN(CC5CCC(F)(F)CC5)C4)C3)ncnc2s1` [Example 70, 4-(6-((4,4-difluorocyclohexyl)methyl)-2,6-diazaspiro[3.3]heptan-2-yl)-6-(2,2,2-trifluoroethyl)thieno[2,3-d]pyrimidine], the figure is 100 to 1000 nM. Turning to `CCS(=O)(=O)N[C@H]1CC[C@H](CN2CC3(C2)CN(c2ncnc4sc(CC(F)(F)F)cc24)C3)CC1` [Example 71, N-((1r,4r)-4-((6-(6-(2,2,2-trifluoroethyl)thieno[2,3-d]pyrimidin-4-yl)-2,6-diazaspiro[3.3]heptan-2-yl)methyl)cyclohexyl)ethanesulfonamide], the IC50 fell in the range of 100 to 1000 nM.

In turn, `O=S(=O)(N[C@H]1CC[C@H](CN2CC3(C2)CN(c2ncnc4sc(CC(F)(F)F)cc24)C3)CC1)C1CC1` [Example 72, N-((1r,4r)-4-((6-(6-(2,2,2-trifluoroethyl)thieno[2,3-d]pyrimidin-4-yl)-2,6-diazaspiro[3.3]heptan-2-yl)methyl)cyclohexyl)cyclopropanesulfonamide] gave an IC50 of 100 to 1000 nM. For the molecule `FC(F)(F)Cc1cc2c(N3CC4(CN(CC5COC5)C4)C3)ncnc2s1` [Example 73, 4-(6-(oxetan-3-ylmethyl)-2,6-diazaspiro[3.3]heptan-2-yl)-6-(2,2,2-trifluoroethyl)thieno[2,3-d]pyrimidine], the 50% inhibitory concentration (IC50) was no less than 1000 nM. As for `FC(F)(F)Cc1cc2c(N3CC4(CN(CC5CC(F)(F)C5)C4)C3)ncnc2s1` [Example 74, 4-(6-((3,3-difluorocyclobutyl)methyl)-2,6-diazaspiro[3.3]heptan-2-yl)-6-(2,2,2-trifluoroethyl)thieno[2,3-d]pyrimidine], the figure is no less than 1000 nM; as for `CC(C)(N)CC(=O)N1CC2(C1)CN(c1ncnc3sc(CC(F)(F)F)cc13)C2` [Example 77, 3-amino-3-methyl-1-(6-(6-(2,2,2-trifluoroethyl)thieno[2,3-d]pyrimidin-4-yl)-2,6-diazaspiro[3.3]heptan-2-yl)butan-1-one], 100 to 1000 nM.

The molecule `O=C(C1CCCNC1)N1CC2(C1)CN(c1ncnc3sc(CC(F)(F)F)cc13)C2` (stereo not shown) [Example 78, piperidin-3-yl(6-(6-(2,2,2-trifluoroethyl)thieno[2,3-d]pyrimidin-4-yl)-2,6-diazaspiro[3.3]heptan-2-yl)methanone] had a half-maximal inhibitory concentration (IC50) of 100 to 1000 nM. As for `O=C(C1CCCCN1)N1CC2(C1)CN(c1ncnc3sc(CC(F)(F)F)cc13)C2` (stereo not shown) [Example 79, piperidin-2-yl(6-(6-(2,2,2-trifluoroethyl)thieno[2,3-d]pyrimidin-4-yl)-2,6-diazaspiro[3.3]heptan-2-yl)methanone], the figure is 100 to 1000 nM; as for `CC(C)N1CC2(CCN(c3ncnc4sc(CC(F)(F)F)nc34)CC2)C1` [Example 80, 7-(2-isopropyl-2,7-diazaspiro[3.5]nonan-7-yl)-2-(2,2,2-trifluoroethyl)thiazolo[5,4-d]pyrimidine], no less than 1000 nM; as for `CC(C)CN1CC2(CCN(c3ncnc4sc(CC(F)(F)F)nc34)CC2)C1` [Example 81, 7-(2-isobutyl-2,7-diazaspiro[3.5]nonan-7-yl)-2-(2,2,2-trifluoroethyl) thiazolo[5,4-d]pyrimidine], no less than 1000 nM.

As to `FC(F)(F)Cc1nc2c(N3CCC4(CCN(Cc5ccccc5)C4)C3)ncnc2s1` (stereo not shown) [Example 82, 7-(7-benzyl-2,7-diazaspiro[4.4]nonan-2-yl)-2-(2,2,2-trifluoroethyl)thiazolo[5,4-d]pyrimidine], the half-inhibitory concentration (IC50) was in the range of 100 to 1000 nM. In the case of `Cc1c(CN2CCC3(CCN(c4ncnc5sc(CC(F)(F)F)nc45)C3)C2)ccc2[nH]c(C#N)cc12` (stereo not shown) [Example 83, 4-methyl-5-((7-(2-(2,2,2-trifluoroethyl)thiazolo[5,4-d]pyrimidin-7-yl)-2,7-diazaspiro[4.4]nonan-2-yl)methyl)-1H-indole-2-carbonitrile], the IC50 was less than 100 nM. The molecule `CS(=O)(=O)Nc1ccc(CN2CCC3(CCN(c4ncnc5sc(CC(F)(F)F)nc45)C3)C2)cc1` (stereo not shown) [Example 84, N-(4-((7-(2-(2,2,2-trifluoroethyl)thiazolo[5,4-d]pyrimidin-7-yl)-2,7-diazaspiro[4.4]nonan-2-yl)methyl)phenyl)methanesulfonamide] came in with an IC50 of less than 100 nM.

Molecule `CC(C)CN1CC2(CCN(c3ccnc4ccc(CC(F)(F)F)cc34)CC2)C1` [Example 85, 4-(2-isobutyl-2,7-diazaspiro[3.5]nonan-7-yl)-6-(2,2,2-trifluoroethyl)quinoline] displayed an IC50 of no less than 1000 nM.

`FC(F)(F)Cc1ccc2nccc(N3CCC4(CC3)CN(CC3CC3)C4)c2c1` [Example 87, 4-(2-(cyclopropylmethyl)-2,7-diazaspiro[3.5]nonan-7-yl)-6-(2,2,2-trifluoroethyl)quinoline] showed a half-maximal inhibitory concentration (IC50) of no less than 1000 nM.
